Here are results for two molecules from patent US9585875B2, “TRPM8 antagonists” (Dompé S.P.A., priority 2011, dated 2017).

One data set relates to Female rats. Kind of data set: Isovolumetric bladder model. The class given is in vivo, rat. As for the experimental part: Female rats were anesthetized with urethane. Ureters were ligated and sectioned. A catheter was inserted through the urinary meatus into the bladder before urethral ligature. […] 10 or 45 or with 100 μL of vehicle, then with 100 μL of saline every 5 min until the occurrence of rhythmic bladder contraction (RBC). A maximal volume of 3 mL was infused. The intravesical pressure was followed during 1 h30 after RBC appearance. For each group, Threshold Volume (TV), Micturition Frequency (MF) and Amplitude of Micturition (AM) were measured during the whole period. […] No effect on the total MF (measured during 90 min) was observed.

Another data set relates to Male Sprague-Dawley rats. As to the kind of experiment: Chronic constriction injury model, mechanical allodynia (von Frey). The class given is in vivo, rat. The following applies: 10 mg/kg i.v., 2 hours post-dosing, CCI rats. As for the experimental part:
Male Sprague-Dawley rats were used. Under pentobarbital anesthesia, the sciatic nerve was exposed at mid-thigh level (Bennett G J et al Pain. 33: 87-107, 1988). Four ligatures were loosely tied around the sciatic nerve of the left hind limb to induce enhancement of pain caused by nerve injury. Mechanical allodynia was evaluated by using a set of 8 manual von Frey monofilaments (0.4, 0.6, 1, 2, 4, 6, 8 and 15 g) 18 days after surgery and basal response was recorded.
On day 19 body weight was recorded and compounds 10 and 45 were administered by i.v. route at the dose of 10 mg/kg. 60, 120 and 180 min post dose, mechanical allodynia was tested by evaluation of the Paw Withdrawl Threshold (PWT) and % Maximum Possible Effect (MPE) was calculated according to the following formula: […]
The mechanical allodynia was tested 1 day before treatment and at 2 hours post-dosing. One-way ANOVA followed by Dunnett's test was applied for comparison between vehicle control and test compound treated groups. *p<0.05 is considered significant.

In data set [1] the target is T1, human Adrenergic α1A Receptor (Homo sapiens, UniProt P35348).
T1 construct: expressed in transfected cells; host or cells: HEK293 or CHO
As to the kind of experiment: Radioligand binding assay. The following applies: read-out: percentage of control binding value (% B). As to the method: (§1) The objective of this study was to evaluate the in vitro effects of compounds 10 and 45 on cloned human GPCRs (G-protein coupled receptors) expressed in HEK293 or CHO cells using radioligand binding assays (compound concentration=10 μM).
(§2) Three replicates were performed for each experiment.
(§3) For each assay a concentration-response curve of the appropriate reference compound was performed in each experiment. The sample radioactivity content was measured after the addition of the scintillation cocktail Microscint 20 (PerkinElmer), by a microplate scintillation Beta-counter TopCount NXT (PerkinElmer). The atomic disintegrations per minutes evaluated with the beta counter were about 15 times higher than those found using the gamma counter. Data are expressed as percentage of control binding value (% B) and test compound inhibition was considered significant when % B was <75% at 10 μM.

Data set [2] addresses T2, human Adrenergic α2A Receptor (Homo sapiens, UniProt P08913).
T2 construct: expressed in transfected cells; host or cells: HEK293 or CHO
Kind of data set: Radioligand binding assay. The note with it: read-out: percentage of control binding value (% B). As for the experimental part: as §1, §2, §3

Data set [3] has as its target T3, human Adrenergic β2 Receptor (Homo sapiens, UniProt P07550).
T3 construct: expressed in transfected cells; host or cells: HEK293 or CHO
As to the kind of experiment: Radioligand binding assay. The following applies: read-out: percentage of control binding value (% B). As for the experimental part: as §1, §2, §3

The target in data set [4] is T4, human Bradykinin B1 Receptor (Homo sapiens, UniProt P46663).
T4 construct: expressed in transfected cells; host or cells: HEK293 or CHO
Kind of data set: Radioligand binding assay. The following applies: read-out: percentage of control binding value (% B). As to the method:
as §1, §2, §3

The target of data set [5] is T5, human Dopamine D2S Receptor (Homo sapiens, UniProt P14416).
T5 construct: expressed in transfected cells; host or cells: HEK293 or CHO
T5 sequence (P14416 1-414 isoform P14416-2): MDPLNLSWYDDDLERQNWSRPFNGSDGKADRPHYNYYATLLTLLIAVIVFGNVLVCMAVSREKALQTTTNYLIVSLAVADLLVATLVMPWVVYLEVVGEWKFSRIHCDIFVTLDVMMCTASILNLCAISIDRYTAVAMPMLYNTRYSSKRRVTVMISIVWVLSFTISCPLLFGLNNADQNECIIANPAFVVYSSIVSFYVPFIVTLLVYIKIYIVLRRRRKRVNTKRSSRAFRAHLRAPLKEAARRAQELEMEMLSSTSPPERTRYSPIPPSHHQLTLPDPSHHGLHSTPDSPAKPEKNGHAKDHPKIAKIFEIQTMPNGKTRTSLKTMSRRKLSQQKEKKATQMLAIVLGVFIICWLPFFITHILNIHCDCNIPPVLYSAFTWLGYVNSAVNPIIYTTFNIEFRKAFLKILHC
As to the kind of experiment: Radioligand binding assay. The following applies: read-out: percentage of control binding value (% B). As to the method:
as §1, §2, §3

Data set [6] concerns the target T6, human Dopamine D3 Receptor (Homo sapiens, UniProt P35462).
T6 construct: expressed in transfected cells; host or cells: HEK293 or CHO
As to the kind of experiment: Radioligand binding assay. The following applies: read-out: percentage of control binding value (% B). As to the method:
as §1, §2, §3

Data set [7] has as its target T7, human Histamine H1 Receptor (Homo sapiens, UniProt P35367).
T7 construct: expressed in transfected cells; host or cells: HEK293 or CHO
As to the kind of experiment: Radioligand binding assay. The following applies: read-out: percentage of control binding value (% B). As to the method: as §1, §2, §3

Data set [8] concerns the target T8, human Histamine H2 Receptor (Homo sapiens, UniProt P25021).
T8 construct: expressed in transfected cells; host or cells: HEK293 or CHO
As to the kind of experiment: Radioligand binding assay. The note with it: read-out: percentage of control binding value (% B). As for the experimental part: as §1, §2, §3

The target of data set [9] is T9, human Serotoninergic 5-HT1A Receptor (Homo sapiens, UniProt P08908).
T9 construct: expressed in transfected cells; host or cells: HEK293 or CHO
T9 sequence (P08908 whole entry): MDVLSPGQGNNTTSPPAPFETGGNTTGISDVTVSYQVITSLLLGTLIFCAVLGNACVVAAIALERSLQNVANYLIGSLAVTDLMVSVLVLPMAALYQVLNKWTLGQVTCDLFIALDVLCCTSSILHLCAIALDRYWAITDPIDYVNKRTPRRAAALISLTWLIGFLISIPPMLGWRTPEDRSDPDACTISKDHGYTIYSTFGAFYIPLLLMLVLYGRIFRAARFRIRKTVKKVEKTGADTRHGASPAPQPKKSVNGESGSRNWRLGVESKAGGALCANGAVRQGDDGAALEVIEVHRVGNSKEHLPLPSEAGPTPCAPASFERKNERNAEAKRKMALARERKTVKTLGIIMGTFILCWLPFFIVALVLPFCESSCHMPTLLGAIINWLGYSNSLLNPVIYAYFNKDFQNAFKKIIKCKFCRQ
As to the kind of experiment: Radioligand binding assay. The note with it: read-out: percentage of control binding value (% B). As to the method:
as §1, §2, §3

For the next data set, the target named is TRPV1 (Homo sapiens, UniProt Q8NER1). As to the kind of experiment: Calcium influx counterassay, agonist capsaicin. The class given is cell-based. The note with it: 0.1 μM capsaicin = 100%, read-out: Normalized % inhibition (TRPV1); for inhibition at 1 µM: Test Conc. 1 uM; for inhibition at 10 µM: Test Conc. 10 uM. As for the experimental part: In order to address more specifically the potential selectivity issues, a counterassay was carried out for 10, 45 and 118 against TRPV1 and TRPV4 ion channels, both involved in the nociception (Jhaveri M D, et al 2005. Eur. J. Neurosci. 22 (2): 361-70, Brierley S M et al, 2008, Gastroenterology. 2008 June; 134(7):2059-69. ). The ability of each test compound to act as an antagonist of TRPV1 was evaluated with a calcium influx assay.
Sequence of TRPV1 (Q8NER1 whole entry, species assumed): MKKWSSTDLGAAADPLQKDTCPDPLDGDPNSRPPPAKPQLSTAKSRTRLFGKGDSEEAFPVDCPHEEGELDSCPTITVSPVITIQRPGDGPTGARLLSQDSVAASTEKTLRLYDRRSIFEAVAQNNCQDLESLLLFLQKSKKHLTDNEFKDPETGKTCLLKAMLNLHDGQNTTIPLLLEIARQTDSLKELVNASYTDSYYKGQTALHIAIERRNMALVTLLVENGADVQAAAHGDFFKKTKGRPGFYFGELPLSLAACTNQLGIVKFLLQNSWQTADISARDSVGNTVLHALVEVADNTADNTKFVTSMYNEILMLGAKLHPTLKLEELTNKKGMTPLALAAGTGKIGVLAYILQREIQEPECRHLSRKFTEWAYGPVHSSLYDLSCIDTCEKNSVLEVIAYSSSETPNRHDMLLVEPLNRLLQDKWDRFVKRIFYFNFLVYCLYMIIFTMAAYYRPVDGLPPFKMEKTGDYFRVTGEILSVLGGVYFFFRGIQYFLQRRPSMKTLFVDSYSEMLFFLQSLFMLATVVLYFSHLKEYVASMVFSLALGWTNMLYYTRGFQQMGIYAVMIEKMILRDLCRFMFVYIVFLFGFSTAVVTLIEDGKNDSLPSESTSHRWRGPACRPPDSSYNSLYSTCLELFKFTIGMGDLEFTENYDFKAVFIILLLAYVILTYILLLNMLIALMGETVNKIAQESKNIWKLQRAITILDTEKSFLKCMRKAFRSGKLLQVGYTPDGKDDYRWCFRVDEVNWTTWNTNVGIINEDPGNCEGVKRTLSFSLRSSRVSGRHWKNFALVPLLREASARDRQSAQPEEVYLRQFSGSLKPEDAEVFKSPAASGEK

A short description of the next data set: Log D. The class given is physicochemical.
The target of a further data set is CYP 2C9 (Homo sapiens, UniProt P11712). As to the kind of experiment: CYP inhibition. The class given is in vitro ADME.
Sequence of CYP 2C9 (P11712 whole entry): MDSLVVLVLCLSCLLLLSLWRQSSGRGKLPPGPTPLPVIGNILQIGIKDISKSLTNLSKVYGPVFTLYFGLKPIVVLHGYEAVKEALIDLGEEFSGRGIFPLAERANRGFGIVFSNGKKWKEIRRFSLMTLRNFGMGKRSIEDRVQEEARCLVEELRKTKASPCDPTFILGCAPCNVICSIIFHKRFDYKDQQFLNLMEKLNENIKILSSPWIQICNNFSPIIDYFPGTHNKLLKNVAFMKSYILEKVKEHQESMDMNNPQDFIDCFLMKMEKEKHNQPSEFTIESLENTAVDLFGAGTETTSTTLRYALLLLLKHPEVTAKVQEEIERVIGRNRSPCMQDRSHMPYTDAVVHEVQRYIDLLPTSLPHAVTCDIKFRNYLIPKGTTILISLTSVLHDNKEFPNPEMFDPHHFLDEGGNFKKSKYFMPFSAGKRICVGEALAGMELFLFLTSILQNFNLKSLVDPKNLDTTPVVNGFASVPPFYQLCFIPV
The target in the next data set is CYP 2D6 (Homo sapiens, UniProt P10635). Kind of data set: CYP inhibition. The class given is in vitro ADME.
A further data set deals with hERG channel (Homo sapiens, UniProt Q12809). Kind of data set: hERG binding.
Sequence of hERG channel (Q12809 whole entry): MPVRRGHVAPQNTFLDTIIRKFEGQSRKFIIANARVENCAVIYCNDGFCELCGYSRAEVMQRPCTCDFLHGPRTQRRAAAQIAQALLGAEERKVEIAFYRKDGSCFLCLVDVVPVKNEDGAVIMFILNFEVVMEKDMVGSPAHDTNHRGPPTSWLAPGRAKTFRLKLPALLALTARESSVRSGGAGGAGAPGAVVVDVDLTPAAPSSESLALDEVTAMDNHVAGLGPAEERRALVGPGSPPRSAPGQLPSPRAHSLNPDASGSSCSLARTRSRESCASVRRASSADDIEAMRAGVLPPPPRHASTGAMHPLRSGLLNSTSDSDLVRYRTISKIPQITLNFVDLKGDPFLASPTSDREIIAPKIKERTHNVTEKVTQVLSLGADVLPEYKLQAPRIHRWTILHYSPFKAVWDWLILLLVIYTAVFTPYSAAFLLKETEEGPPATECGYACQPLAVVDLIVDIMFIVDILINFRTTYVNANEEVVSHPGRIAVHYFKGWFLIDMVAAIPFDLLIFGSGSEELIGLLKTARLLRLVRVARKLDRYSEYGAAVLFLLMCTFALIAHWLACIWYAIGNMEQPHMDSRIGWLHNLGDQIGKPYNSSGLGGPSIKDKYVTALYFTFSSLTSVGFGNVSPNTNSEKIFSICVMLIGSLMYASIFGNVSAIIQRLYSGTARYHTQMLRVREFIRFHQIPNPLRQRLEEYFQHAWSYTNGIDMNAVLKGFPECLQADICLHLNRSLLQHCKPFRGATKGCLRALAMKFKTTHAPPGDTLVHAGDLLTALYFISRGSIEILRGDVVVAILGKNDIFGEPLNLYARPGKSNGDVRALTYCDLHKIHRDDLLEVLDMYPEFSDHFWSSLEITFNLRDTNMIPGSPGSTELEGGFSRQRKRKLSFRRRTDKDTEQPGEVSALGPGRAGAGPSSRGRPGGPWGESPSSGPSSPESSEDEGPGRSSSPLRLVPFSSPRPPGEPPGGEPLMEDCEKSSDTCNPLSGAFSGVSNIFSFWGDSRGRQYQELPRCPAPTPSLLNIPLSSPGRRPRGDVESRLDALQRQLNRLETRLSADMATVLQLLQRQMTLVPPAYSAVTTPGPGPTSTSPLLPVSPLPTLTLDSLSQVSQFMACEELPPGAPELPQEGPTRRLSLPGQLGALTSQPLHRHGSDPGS
Data set [10] in a line: Microsome stability. The following applies: rat. The class given is in vitro ADME.
Data set [11] is described as follows: Microsome stability. The class given is in vitro ADME. The following applies: human.
In a further data set the target is TRPM8 (Homo sapiens, UniProt Q7Z2W7).
A short description of data set [12]: Plasma stability. The class given is in vitro ADME. The note with it: rat.
Data set [13] is described as follows: Plasma stability. The following applies: human. The class given is in vitro ADME.
Where [14] appears, read: intravesical, 3 times 100 μL containing 0.1 mg.

T7 sequence (P35367 whole entry): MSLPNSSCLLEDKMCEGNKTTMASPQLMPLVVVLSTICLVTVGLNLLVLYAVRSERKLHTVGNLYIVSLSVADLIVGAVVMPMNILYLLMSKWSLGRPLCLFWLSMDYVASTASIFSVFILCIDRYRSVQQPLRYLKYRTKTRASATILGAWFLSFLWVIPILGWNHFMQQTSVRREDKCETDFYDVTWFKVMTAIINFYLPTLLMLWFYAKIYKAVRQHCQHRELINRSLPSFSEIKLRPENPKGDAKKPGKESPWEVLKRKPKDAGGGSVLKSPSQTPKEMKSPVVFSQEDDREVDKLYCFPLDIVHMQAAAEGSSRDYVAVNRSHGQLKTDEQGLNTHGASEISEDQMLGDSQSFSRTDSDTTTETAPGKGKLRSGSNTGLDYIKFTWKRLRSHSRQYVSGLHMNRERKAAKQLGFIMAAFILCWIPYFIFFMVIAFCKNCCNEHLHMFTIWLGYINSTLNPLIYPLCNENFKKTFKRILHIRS
T3 sequence (P07550 whole entry): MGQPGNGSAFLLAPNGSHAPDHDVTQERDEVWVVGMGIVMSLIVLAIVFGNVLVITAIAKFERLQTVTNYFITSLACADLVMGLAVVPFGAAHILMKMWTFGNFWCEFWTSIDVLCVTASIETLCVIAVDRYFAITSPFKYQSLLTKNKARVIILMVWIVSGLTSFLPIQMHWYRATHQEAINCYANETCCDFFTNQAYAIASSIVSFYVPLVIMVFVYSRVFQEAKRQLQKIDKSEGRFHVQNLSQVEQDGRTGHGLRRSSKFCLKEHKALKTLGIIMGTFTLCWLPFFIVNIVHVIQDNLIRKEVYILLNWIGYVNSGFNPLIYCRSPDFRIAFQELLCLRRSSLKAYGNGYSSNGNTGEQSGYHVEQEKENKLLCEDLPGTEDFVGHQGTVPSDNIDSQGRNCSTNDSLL
T2 sequence (P08913 whole entry): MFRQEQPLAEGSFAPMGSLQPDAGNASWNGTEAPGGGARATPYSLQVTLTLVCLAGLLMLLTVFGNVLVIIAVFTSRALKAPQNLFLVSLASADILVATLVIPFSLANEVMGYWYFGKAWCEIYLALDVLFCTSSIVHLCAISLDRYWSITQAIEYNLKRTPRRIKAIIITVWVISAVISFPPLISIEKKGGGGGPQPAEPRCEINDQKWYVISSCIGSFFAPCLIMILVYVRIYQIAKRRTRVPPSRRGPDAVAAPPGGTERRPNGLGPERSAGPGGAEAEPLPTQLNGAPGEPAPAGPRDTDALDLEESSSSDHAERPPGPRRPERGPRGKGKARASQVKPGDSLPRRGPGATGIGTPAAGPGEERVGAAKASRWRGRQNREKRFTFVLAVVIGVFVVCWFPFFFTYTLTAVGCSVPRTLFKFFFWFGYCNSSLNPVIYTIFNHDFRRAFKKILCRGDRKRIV
Excerpt for TRPM8: Values were considered significant if the test compound mean was three or more standard deviations away from the positive control agonist mean.

On to `CCOC(=O)c1sc(-c2cccc(F)c2)nc1O` [Compound 10, ethyl 2-(3-fluorophenyl)-4-hydroxy-1,3-thiazole-5-carboxylate], for which the “reduction of Micturition Frequency (MF)” value with Female rats (10 mg/kg i.v., first 30 min of the experiment) is listed as “about 36%”. Also, in the data set with Female rats (intravesical route, 2.3 mg/rat), the “continuous rhythmic bladder contraction (RBC) induced by filling with saline” value is given as “completely abolished”. Further, the “Amplitude of Micturition (AM)” value with Female rats (setting [14]) is “did not change”. Further, the “Threshold Volume (TV)” value with Female rats (setting [14]) amounted to 1.5 mL. Further, in the data set on Female rats (intravesical, 3 times 100 μL containing 0.1 mg, measured during 90 min), the “effect on the total Micturition Frequency (MF)” value is listed as “No effect”. Besides, the “anti-allodynic activity, mechanical allodynia (PWT, % MPE)” value in the data set on Male Sprague-Dawley rats is “significant anti-allodynic activity”. Also, the remaining activity at 10 µM in data set [1] turned out to be 100%; in data set [2], 100%; in [3], 88%; in [4], 91%; in data set [5], 100%; in data set [6], 87%. Further, the figures for the remaining activity at 10 µM in [7], in data set [8] and in data set [9] were 99.3%, 90% and 100%, respectively. For the same molecule, the inhibition at 1 µM at TRPV1 is 1.2%. Also, the inhibition at 10 µM at TRPV1 stood at 2.3%. The “log D values” in the data set “Log D” is “low”. Also, in “Log D”, the logD is 1.59. The “CYP (% inhibition) @10 μM, 2C9” value on CYP 2C9 is less than 5%. The “CYP (% inhibition) @10 μM, 2D6” value on CYP 2D6 is given as less than 5%. In addition, the “hERG binding @10 μM” value on hERG channel is on record as “No effect”. The “Microsome stability (% remaining) @1 μM” value in “Microsome stability [10]” was 4%; in “Microsome stability [11]”, 5%. For the same molecule, the “antagonist activity in calcium influx assay” value on TRPM8 is reported as “confirmed the antagonist activity”.

Consider `O=C(O)c1sc(-c2ccc(Cl)cc2)nc1OCc1ccc(Cl)cc1` [Compound 45, 4-[(4-chlorobenzyl)oxy]-2-(4-chlorophenyl)-1,3-thiazole-5-carboxylic acid], for which the “anti-allodynic activity, mechanical allodynia (PWT, % MPE)” value in the data set with Male Sprague-Dawley rats is on record as “significant anti-allodynic activity”. Moreover, the remaining activity at 10 µM in [1] amounted to 96%; in data set [2], 100%; in data set [3], 93%; in data set [4], 99.6%; in data set [5], 100%; in data set [6] it was 97.2%. Also, the results for the remaining activity at 10 µM in data set [7], in [8] and in data set [9] were 100%, 93.2% and 100%, respectively. For the same molecule, on TRPV1, the inhibition at 1 µM is 3.1%. The inhibition at 10 µM at TRPV1 was found to be 6.3%. Also, the pH-dependent lipophilicity (logD) in the data set “Log D” was found to be 2.7. The “CYP (% inhibition) @10 μM, 2C9” value on CYP 2C9 was less than 5%. Besides, the “CYP (% inhibition) @10 μM, 2D6” value on CYP 2D6 was less than 5%. The “hERG binding @10 μM” value on hERG channel is “No effect”. Moreover, the “Plasma stability (% remaining) @10 μM” value in the data set “Plasma stability [12]” is given as 9%; in “Plasma stability [13]”, 1%. Also, the “antagonist activity in calcium influx assay” value on TRPM8 was “confirmed the antagonist activity”.
